This is an account of results in PubChem BioAssay AID1996.

≈ marks a conversion by molar mass, not a printed value.

The conditions of the data set: buffer; pH 7.4; 200.0 µM.
As a reminder, the kinetic solubility is the concentration staying in solution when a stock, usually in DMSO, is diluted into the medium. On to `O=C(NC(=S)NCCO)c1sc2ccccc2c1Cl`, for which the kinetic solubility turned out to be 1.8 µg/mL (≈ 5.72 µM).

`CCOC(=O)Cc1csc(NC(=O)Nc2ccc(OC(F)(F)F)cc2)n1`: the kinetic solubility is 0.3 µg/mL (≈ 0.771 µM).

Take `CCN(CC)S(=O)(=O)c1ccc(N2CCCC2)c(NC(=O)c2ccc([N+](=O)[O-])o2)c1`: the kinetic solubility was determined as 49.4 µg/mL (≈ 113 µM).

Consider `Cc1ccnc(NS(=O)(=O)c2ccc(NC(=O)c3oc4ccc(F)cc4c3C)cc2)n1`, for which the kinetic solubility came to 1.6 µg/mL (≈ 3.63 µM).

Take `O=S(=O)(Nc1ccncc1Cl)c1cc(Cl)ccc1Cl`: the solubility (kinetic) was greater than 50.6 µg/mL.

`O=C(CNc1ccccc1)Nc1cccc2ccccc12` displayed a kinetic solubility of 3.4 µg/mL (≈ 12.3 µM).

In turn, `O=C(NCC(=O)N1CCCCCC1)c1ccc(OC(F)F)cc1` displayed a solubility (kinetic) greater than 49 µg/mL.

With `CC1(C)CC(=O)C2=C(C1)Nc1ccccc1NC2c1cccc(F)c1` (stereo not drawn), the solubility (kinetic) is greater than 50.5 µg/mL.

As for `O=C(COc1ccc(/C=C\[N+](=O)[O-])cc1)N1CCOCC1`, the kinetic solubility was 31.7 µg/mL (≈ 108 µM).

Compound `Oc1cccc(C(=S)N2CCC(Cc3ccccc3)CC2)c1` showed a solubility (kinetic) of 15 µg/mL (≈ 48.2 µM).

Take `S=C(Nc1ccccc1)N1CCCCCCC1`: the kinetic solubility is greater than 37.3 µg/mL.

`Cc1csc(C(=O)O)c1NC(=O)c1ccc(F)cc1`: the kinetic solubility is greater than 41.9 µg/mL.

Take `Cc1cc(C(=O)NCC(=O)Nc2c(C)cccc2C)c(C)o1`: the solubility (kinetic) came to 23.8 µg/mL (≈ 79.2 µM).

Regarding `CS(=O)(=O)N(CC(=O)N1CCCC1)c1ccccc1Br`, the solubility (kinetic) is greater than 54.2 µg/mL.

`O=C(COC(=O)CC1CCCC1)Nc1ccc(Br)cc1F`: the solubility (kinetic) is 19.2 µg/mL (≈ 53.6 µM).

For the compound `CCN(CC)S(=O)(=O)c1cccc(-c2cn3cccnc3n2)c1`, the kinetic solubility was 11.1 µg/mL (≈ 33.6 µM).

Regarding `O=C(CN1CCCCC1)NC(=O)Nc1ccccc1F`, the solubility (kinetic) was greater than 41.9 µg/mL.

For `CC1CC1C(=O)Nc1nc(-c2ccc(Cl)s2)cs1` (stereo not drawn), the solubility (kinetic) was determined as 0.6 µg/mL (≈ 2.01 µM).

The compound `Cc1ccc(OCC(=O)NCCCNC(=O)c2ccncc2)cc1` came in with a kinetic solubility greater than 49.1 µg/mL.

`CCOc1cc(C=O)ccc1OCC(N)=O` had a kinetic solubility greater than 33.5 µg/mL.

`COc1ccc2nc(NC(=O)Nc3ccccc3OC)sc2c1` displayed a kinetic solubility of 1.4 µg/mL (≈ 4.25 µM).

In turn, `CC(=O)c1sc(-c2cccc(Cl)c2)nc1C` returned a kinetic solubility of 3.1 µg/mL (≈ 12.3 µM).

Consider `Clc1ccc(COn2ccnc2)cc1Cl`, for which the solubility (kinetic) is greater than 36.5 µg/mL.

The compound `O=C(NCN1CCN(c2ccccc2)CC1)c1cnccn1` displayed a solubility (kinetic) greater than 44.6 µg/mL.

`O=C(NCc1ccccc1)N1CCCC1` gave a kinetic solubility greater than 30.6 µg/mL.

Take `COc1ccc(-n2c(C)cc(-c3cn4cccc(C)c4n3)c2C)cc1`: the solubility (kinetic) amounted to 11.9 µg/mL (≈ 35.9 µM).

On to `OCC1(Cc2ccccc2)CCN(CCCC2CCCC2)CC1`, for which the solubility (kinetic) was greater than 47.3 µg/mL.

In the case of `COc1ccccc1-n1c(-c2ccccc2Cl)nc2ccccc2c1=O`, the solubility (kinetic) was determined as 36.2 µg/mL (≈ 99.8 µM).

Compound `Cc1noc(C)c1COC(=O)c1cccnc1Cl` gave a solubility (kinetic) greater than 40 µg/mL.

For the compound `N#Cc1cnn(-c2ccc(F)cc2)c1N`, the kinetic solubility was greater than 30.3 µg/mL.

`O=C(NCc1ccccc1)c1cc[n+]([O-])cc1` gave a kinetic solubility greater than 34.2 µg/mL.

As to `Cc1ccc(S(=O)(=O)N2CCCC(C(=O)NCC3CCCO3)C2)cc1` (stereo not drawn), the solubility (kinetic) was greater than 55 µg/mL.

`O=C(O)CCC(=O)Nc1ccc(Oc2ncnc3cc(Cl)ccc23)nc1` registered a kinetic solubility greater than 55.9 µg/mL.

Compound `C/C(CC1CC(C)(C)OC1=O)=N\NC(N)=S` (stereo not drawn) returned a solubility (kinetic) greater than 36.5 µg/mL.

Regarding `CCN1CCCC1CNC(=O)C(=O)NC` (stereo not drawn), the kinetic solubility is greater than 32 µg/mL.

`Cc1ccc2c(c1)c1c3n2CCN(CC#N)C3CCC1` (stereo not drawn): the kinetic solubility was found to be 1.1 µg/mL (≈ 4.15 µM).

On to `Cc1ccc(CNCCNCCO)s1.Cl`, for which the kinetic solubility is greater than 43.1 µg/mL.

Compound `Cc1cccc(N=Cc2c(O)n(C)c(=O)n(C)c2=O)c1` had a kinetic solubility of 10 µg/mL (≈ 36.6 µM).

Take `Cc1cc(C(=O)O)c(C)n1C1CC1`: the solubility (kinetic) is greater than 26.9 µg/mL.

In the case of `O=C1CSC(c2ccncc2)N1Cc1ccc(F)cc1` (stereo not drawn), the solubility (kinetic) is greater than 43.3 µg/mL.

Regarding `COc1ccc(C(=O)NCC(C)NC(=O)c2ccc(OC)c(OC)c2)cc1OC` (stereo not drawn), the kinetic solubility came out at 8.9 µg/mL (≈ 22.1 µM).

On to `Cc1ccc(CN2CCN(c3ccccc3Cl)CC2)o1`, for which the solubility (kinetic) turned out to be 10 µg/mL (≈ 34.4 µM).

The compound `C/C(=N\NC(=O)c1ccc(Cl)cc1)c1cccnc1` registered a kinetic solubility greater than 41.1 µg/mL.
